Assay results: publication PMC12921516 (ACS Bio & Med Chem Au, 2025)
“Also recorded” adds a separate entry of the source.

Tests used:
hPTP1B1–400 = target: T1, hPTP1B1–400 (Homo sapiens, UniProt P18031); test: Enzymatic kinetics studies (Lineweaver–Burk, model fitting); assay type: biochemical; conditions: for inhibition type: hPTP1B1–400, best fit model; for Ki: hPTP1B1–400, pNPP 0.1–0.5 mM; for Km / Vmax: hPTP1B1–400 with inhibitor
T1 construct: h PTP1B 1–400 IC 50 (μM ± S.D); made in house
T1 sequence (P18031 1-400): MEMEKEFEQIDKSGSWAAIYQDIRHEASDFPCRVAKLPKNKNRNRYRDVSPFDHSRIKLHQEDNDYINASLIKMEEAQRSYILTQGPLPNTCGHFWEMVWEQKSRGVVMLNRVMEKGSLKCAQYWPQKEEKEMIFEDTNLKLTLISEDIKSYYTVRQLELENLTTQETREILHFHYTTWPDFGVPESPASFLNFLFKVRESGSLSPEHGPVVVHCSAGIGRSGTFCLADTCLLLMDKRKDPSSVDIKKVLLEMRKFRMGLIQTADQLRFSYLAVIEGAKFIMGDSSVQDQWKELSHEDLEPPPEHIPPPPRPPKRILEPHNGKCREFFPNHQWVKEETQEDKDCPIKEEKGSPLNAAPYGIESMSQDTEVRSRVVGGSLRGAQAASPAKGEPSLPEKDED
Method: Kinetic analyses were conducted using varying concentrations of substrate and inhibitor.
Five increasing concentrations of each inhibitor were tested, according to their previously determined IC50 values. The negative control was prepared by omitting the inhibitor in the presence of the enzyme and substrate. The Supporting Information includes detailed eqs (E1–E5) used to determine the kinetic parameters and mechanisms involved in PTP1B inhibition.
Equation 1 was used to obtain enzyme kinetic parameters by fitting data to the Michaelis-Menten model (Origin Pro
The equations defined for the following non-linear inhibition models were used to determine the mechanism of
PTP1B inhibition: competitive (E2), non-competitive (E3), uncompetitive (E4), and mixed (E5) (Origin Pro 2018 (64
(1+ ( ))(x05nh ) + (1+ ( )) (x05 nh)
Vmax is the maximum velocity, x is the substrate concentration, i is the inhibitor concentration, nh is the number of
Hill. Ki is the inhibition constant, and Km is the Michaelis constant.

[1] = Cytotoxicity, Sulforhodamine B assay; assay type: cell-based, human; conditions: human, HFF-1 normal foreskin fibroblast cells; HFF-1 proliferation, 48-h incubation, 0.78 μM to 100 μM
Method: Given the significance of a drug candidate’s toxicity in relation to its inhibition potential, a cytotoxicity assay was conducted using Normal Human Foreskin Fibroblasts (HFF-1).
All assays were carried out in triplicate. Cell proliferation was determined by the Sulforhodamine B assay, and the half-maximal cytotoxic concentration (CC50) was determined by Probit analysis.

HepG2 cells = test: Cell viability of HepG2 with crystal violet; assay type: cell-based, human; conditions: 1, 10, and 30 µM for 24, 48 and 72 h
Method: A 96-well plate was seeded with 3,000 HepG2 cells per well and incubated for 72 h. Subsequently, the cells were treated with test compounds at various concentrations for 24, 48, and 72 h. After incubation, the medium was removed, and 100 μL of 1% glutaraldehyde was added for 15 min. The glutaraldehyde was then removed, and 50 μL of 0.5% crystal violet (dissolved in 25% methanol) was added for 30 min. The crystal violet staining solution was subsequently removed, and the plate was thoroughly rinsed with tap water. The precipitate was dissolved in a 10% acetic acid solution, mixed for 15 min, and the absorbance was measured at 590 nm using a plate reader (xMark Microplate Spectrophotometer, Bio-Rad).
Figure S48. Cell viability assessment by crystal violet staining. HepG2 cell viability was evaluated after treatment with the respective compounds at concentrations of 1 , 10, and 30 µM for 24 , 48 and 72 hours. Bar graphs represent mean ± SEM. No significant differences were detected using ANOVA. […]

normoglycemic CD1 mice = test: Oral glucose tolerance test (OGTT); assay type: in vivo; conditions: single intragastric dose 50 mg/kg, glucose 2 g/kg
Method: The studies were carried out on compounds 4b, 4g, and 5g using both normoglycemic CD1 mice and a mouse model of noninsulin-dependent diabetes mellitus (NIDDM). An oral glucose tolerance test (OGTT) was conducted on the normoglycemic mice to evaluate the hypoglycemic activity of the compounds, while an insulin tolerance test (ITT) was performed on hyperglycemic CD1 mice to assess the compounds’ capacity to enhance insulin sensitivity in streptozotocin-induced diabetic mice. Pioglitazone and GA were included as positive controls.
Healthy six-week-old male CD-1 mice, weighing between 30 and 40 g, were maintained at a temperature of 25 ± 2 °C, under a 12-h light/dark cycle and 45–65% humidity throughout the experimental period. The mice were provided with a rodent pelleted diet (Harlan Laboratories, Indianapolis, USA) and had access to water ad libitum. Sixteen hours before the experiment, all mice were fasted but still had free access to water. All animal procedures were conducted in accordance with the Mexican Federal Regulations for Animal Experimentation and Care (SAGARPA, NOM-062-ZOO-1999, Mexico) and received approval from the Institutional Animal Care and Use Committee, following guidelines outlined in the US National Institutes of Health publication (No. 85–23, revised 1985).
Animals were categorized into five groups, each consisting of four mice (n = 4). The experimental groups received an oral suspension of compounds 4b, 4g, and 5g, prepared in a 10% Tween 20/water solution, at a dosage of 50 mg/kg body weight. A control group was treated with only the 10% Tween 20 solution. The final group was administered pioglitazone at a dose of 45 mg/kg, which is recognized as a reference drug for insulin sensitization. To evaluate glucose levels, blood samples were collected from the tails of the mice at 0, 30, 60, 90, and 120 min after the administration of the vehicle, test compound, or drug. Blood glucose concentration was measured using a commercial glucometer (Accu-Chek, Performa; Roche) and the enzymatic glucose dehydrogenase method. The percentage variation in glycemia was calculated by comparing the selected postadministration glycemia (G x ) with the initial value (G0) using the following formula: %variationofglycemia=[(Gx−G0)/G0]×100 where G0 represents the initial glycemia values and Gx indicates the glycemia values at +30, + 60, + 90, and +120 min, respectively.
To determine the hypoglycemic effect of the compounds on nondiabetic animals, the compounds 4b, 4g, and 5g were administered intragastrically. Pioglitazone was used as a positive control. After 30 min, five mice/group (CD-1) were subjected to OGTT. The test was performed using glucose (2 g/kg) as substrate.

CC1(C)c2[nH]c3ccc(OC(F)F)cc3c2C[C@]2(C)[C@H]3C(=O)C=C4[C@@H]5C[C@@](C)(C(=O)O)CC[C@]5(C)CC[C@@]4(C)[C@]3(C)CC[C@@H]12 [compound 4b, (20β)-5′-(Difluoromethoxy)-11-oxo-1′H-oleana-2,12-dieno[3,2-b]indol-29-oic Acid]
inhibition type (hPTP1B1–400): uncompetitive | Ki (hPTP1B1–400): 320 ± 50 nM | Km (hPTP1B1–400): 760 ± 170 µM | Vmax (hPTP1B1–400): 1.24 ± 0.18 mM/min | CC50 at 48 h [1]: 98700 ± 2000 nM | HepG2 cell viability (HepG2 cells): No significant differences; also recorded: did not compromise HepG2 cell viability | hypoglycemic effect in OGTT (normoglycemic CD1 mice): did not cause hypoglycemia

CC1(C)c2[nH]c3ccc(S(N)(=O)=O)cc3c2C[C@]2(C)[C@H]3C(=O)C=C4[C@@H]5C[C@@](C)(C(=O)O)CC[C@]5(C)CC[C@@]4(C)[C@]3(C)CC[C@@H]12 [compound 4g, (20β)-5′-Sulfamoyl-11-oxo-1′H-oleana-2,12-dieno[3,2-b]indol-29-oic Acid]
inhibition type (hPTP1B1–400): uncompetitive | Ki (hPTP1B1–400): 1620 ± 190 nM | Km (hPTP1B1–400): 870 ± 130 µM | Vmax (hPTP1B1–400): 1.46 ± 0.15 mM/min | CC50 at 48 h [1]: > 100000 nM | HepG2 cell viability (HepG2 cells): No significant differences | hypoglycemic effect in OGTT (normoglycemic CD1 mice): did not cause hypoglycemia

CC1(C)c2c(cnn2-c2ccc(S(N)(=O)=O)cc2)C[C@]2(C)[C@H]3C(=O)C=C4[C@@H]5C[C@@](C)(C(=O)O)CC[C@]5(C)CC[C@@]4(C)[C@]3(C)CC[C@@H]12 [compound 5g, (20β)-11-Oxo-2′-(4-sulfamoylphenyl)-2′H-oleana-2,12-dieno[3,2-c]pyrazol-29-oic Acid]
inhibition type (hPTP1B1–400): uncompetitive | Ki (hPTP1B1–400): 720 ± 120 nM | Km (hPTP1B1–400): 970 ± 200 µM | Vmax (hPTP1B1–400): 1.34 ± 0.21 mM/min | CC50 at 48 h [1]: > 100000 nM | HepG2 cell viability (HepG2 cells): No significant differences; also recorded: did not compromise HepG2 cell viability | hypoglycemic effect in OGTT (normoglycemic CD1 mice): did not cause hypoglycemia
